Experimental data published in ChEMBL document CHEMBL1127579, “Novel, potent luteinizing hormone-releasing hormone antagonists with improved solubility in water” (1994).
In brackets after ≈: the same amount, converted by molar mass.

What was measured:
Format in all cases: functional
Rattus norvegicus [1] = species on record: Rattus norvegicus; test: Antiovulatory activity expressed as ratio of rats ovulated/total rats at a dose of 0.5 microg; 5/5
Rattus norvegicus [2] = species on record: Rattus norvegicus; test: Antiovulatory activity expressed as ratio of rats ovulated/total rats at a dose of 0.5 microg; 2/9
Rattus norvegicus [3] = species on record: Rattus norvegicus; test: Evaluated for histamine releasing activity
Rattus norvegicus [4] = species on record: Rattus norvegicus; test: Antiovulatory activity expressed as ratio of rats ovulated/total rats at a dose of 1.0 ug; […]
Rattus norvegicus [5] = species on record: Rattus norvegicus; test: Antiovulatory activity expressed as ratio of rats ovulated/total rats at a dose of 1.0 ug; 1/6
Rattus norvegicus [6] = species on record: Rattus norvegicus; test: Antiovulatory activity expressed as ratio of rats ovulated/total rats at a dose of 0.5 microg; 3/13
Rattus norvegicus [7] = species on record: Rattus norvegicus; test: Antiovulatory activity expressed as ratio of rats ovulated/total rats at a dose of 0.5 microg; 6/6
Rattus norvegicus [8] = species on record: Rattus norvegicus; test: Antiovulatory activity expressed as ratio of rats ovulated/total rats at a dose of 0.5 microg; 7/7
Rattus norvegicus [9] = species on record: Rattus norvegicus; test: Antiovulatory activity expressed as ratio of rats ovulated/total rats at a dose of 1.0 ug
Rattus norvegicus [10] = species on record: Rattus norvegicus; test: Antiovulatory activity expressed as ratio of rats ovulated/total rats at a dose of 0.5 microg; 0/8
Rattus norvegicus [11] = species on record: Rattus norvegicus; test: Antiovulatory activity expressed as ratio of rats ovulated/total rats at a dose of 0.25 microg; 6/8
Rattus norvegicus [12] = species on record: Rattus norvegicus; test: Antiovulatory activity expressed as ratio of rats ovulated/total rats at a dose of 0.5 microg; 3/5
Rattus norvegicus [13] = species on record: Rattus norvegicus; test: Antiovulatory activity expressed as ratio of rats ovulated/total rats at a dose of 0.5 microg; 2/6
Rattus norvegicus [14] = species on record: Rattus norvegicus; test: Antiovulatory activity expressed as ratio of rats ovulated/total rats at a dose of 0.5 microg; 5/6
Rattus norvegicus [15] = species on record: Rattus norvegicus; test: Antiovulatory activity expressed as ratio of rats ovulated/total rats at a dose of 0.5 microg; 4/6

For `CC(C)C[C@H](NC(=O)[C@@H](CCCCNC(=O)c1ccc(N)nc1)NC(=O)[C@H](CCCCNC(=O)c1ccccn1)NC(=O)[C@@H](NC(=O)[C@@H](Cc1cccnc1)NC(=O)[C@@H](Cc1ccc(Cl)cc1)NC(=O)[C@H](N)Cc1ccc2ccccc2c1)[C@@H](C)O)C(=O)N[C@@H](CCCN=C(N)N)C(=O)N1CCC[C@H]1C(=O)N[C@H](C)C(=O)O`, the Ratio (Rattus norvegicus [1]) was 5.

`CC(=O)N[C@H](Cc1ccc2ccccc2c1)C(=O)N[C@H](Cc1ccc(Cl)cc1)C(=O)N[C@H](Cc1cccnc1)C(=O)N[C@@H](CO)C(=O)N[C@@H](CCCCNC(=O)c1cccnc1)C(=O)N[C@H](CCCCNC(=O)c1cnccn1)C(=O)N[C@@H](CC(C)C)C(=O)N[C@@H](CCCCN)C(=O)N1CCC[C@H]1C(=O)N[C@H](C)C(=O)O` gave a Ratio (Rattus norvegicus [2]) of 2, an ED50 (Rattus norvegicus [3]) of 263 µg/mL (≈ 170 µM) and a Ratio (Rattus norvegicus [4]) of 1.

`CC(=O)N[C@H](Cc1ccc2ccccc2c1)C(=O)N[C@H](Cc1ccc(Cl)cc1)C(=O)N[C@H](Cc1cccnc1)C(=O)N[C@@H](CO)C(=O)N[C@@H](CCCCNC(=O)c1ccccn1)C(=O)N[C@H](CCCCNC(=O)c1nccnc1N)C(=O)N[C@@H](CC(C)C)C(=O)N[C@@H](CCCCNC(C)C)C(=O)N1CCC[C@H]1C(=O)N[C@H](C)C(=O)O` was tested, and the Ratio (Rattus norvegicus [5]) was 1, the ED50 (Rattus norvegicus [3]) was 100 µg/mL (≈ 62.2 µM) and the Ratio (Rattus norvegicus [6]) was 3.

With `CC(=O)N[C@H](Cc1ccc2ccccc2c1)C(=O)N[C@H](Cc1ccc(Cl)cc1)C(=O)N[C@H](Cc1cccnc1)C(=O)N[C@@H](CO)C(=O)N[C@@H](CCCCNC(=O)c1ccccn1)C(=O)N[C@H](CCCCNC(=O)c1cnccn1)C(=O)N[C@@H](CC(C)C)C(=O)N[C@@H](CCCCN)C(=O)N1CCC[C@H]1C(=O)N[C@H](C)C(=O)O` the “Number of rats ovulated” value (Rattus norvegicus [7]) was 6.

In the case of `CC(=O)N[C@H](Cc1ccc2ccccc2c1)C(=O)N[C@H](Cc1ccc(Cl)cc1)C(=O)N[C@H](Cc1cccnc1)C(=O)N[C@@H](CO)C(=O)N[C@@H](CCCCNC(=O)c1ccccn1)C(=O)N[C@H](CCCCNC(=O)c1cccnc1N)C(=O)N[C@@H](CC(C)C)C(=O)N[C@@H](CCCN=C(N)N)C(=O)N1CCC[C@H]1C(=O)N[C@H](C)C(=O)O`, the “Number of rats ovulated” value (Rattus norvegicus [8]) is reported as 7.

In the case of `CC(=O)N[C@H](Cc1ccc2ccccc2c1)C(=O)N[C@H](Cc1ccc(Cl)cc1)C(=O)N[C@H](Cc1cccnc1)C(=O)N[C@@H](CO)C(=O)N[C@@H](CCCCNC(=O)c1ccc(N)nc1)C(=O)N[C@H](CCCCNC(=O)c1ccc(N)nc1)C(=O)N[C@@H](CC(C)C)C(=O)N[C@@H](CCCCNC(C)C)C(=O)N1CCC[C@H]1C(=O)N[C@H](C)C(=O)O`, the “Number of rats ovulated” value (Rattus norvegicus [8]) is reported as 7.

In the case of `CC(=O)N[C@H](Cc1ccc2ccccc2c1)C(=O)N[C@H](Cc1ccc(Cl)cc1)C(=O)N[C@H](Cc1cccnc1)C(=O)N[C@@H](CO)C(=O)N[C@@H](CCCCNC(=O)c1cccc(N)n1)C(=O)N[C@H](CCCCNC(=O)c1cccc(N)n1)C(=O)N[C@@H](CC(C)C)C(=O)N[C@@H](CCCN=C(N)N)C(=O)N1CCC[C@H]1C(=O)N[C@H](C)C(=O)O`, the “Number of rats ovulated” value (Rattus norvegicus [7]) is reported as 6.

In the case of `CC(=O)N[C@H](Cc1ccc2ccccc2c1)C(=O)N[C@H](Cc1ccc(Cl)cc1)C(=O)N[C@H](Cc1cccnc1)C(=O)N[C@@H](CO)C(=O)N[C@@H](CCCCNC(=O)c1ccccn1)C(=O)N[C@H](CCCCNC(=O)c1nccnc1N)C(=O)N[C@@H](CC(C)C)C(=O)N[C@@H](CCCN=C(N)N)C(=O)N1CCC[C@H]1C(=O)N[C@H](C)C(=O)O`, the “Number of rats ovulated” value (Rattus norvegicus [7]) is reported as 6.

For `CC(=O)N[C@H](Cc1ccc2ccccc2c1)C(=O)N[C@H](Cc1ccc(Cl)cc1)C(=O)N[C@H](Cc1cccnc1)C(=O)N[C@@H](CO)C(=O)N[C@@H](CCCCNC(=O)c1ccccn1)C(=O)N[C@H](CCCNC(=O)c1ccc(N)nc1)C(=O)N[C@@H](CC(C)C)C(=O)N[C@@H](CCCN=C(N)N)C(=O)N1CCC[C@H]1C(=O)N[C@H](C)C(=O)O`, the Ratio (Rattus norvegicus [9]) was 0, the Ratio (Rattus norvegicus [10]) was 0 and the ED50 (Rattus norvegicus [3]) was 100 µg/mL (≈ 63.3 µM). For the same compound, the Ratio (Rattus norvegicus [11]) was 6.

For `CC(C)C[C@H](NC(=O)[C@@H](CCCCNC(=O)c1ccc(N)nc1)NC(=O)[C@H](Cc1ccc(O)cc1)NC(=O)[C@H](CO)NC(=O)[C@@H](Cc1cccnc1)NC(=O)[C@@H](Cc1ccc(Cl)cc1)NC(=O)[C@H](N)Cc1ccc2ccccc2c1)C(=O)N[C@@H](CCCN=C(N)N)C(=O)N1CCC[C@H]1C(=O)N[C@H](C)C(=O)O`, the Ratio (Rattus norvegicus [12]) was 3.

In the case of `CC(=O)N[C@H](Cc1ccc2ccccc2c1)C(=O)N[C@H](Cc1ccc(Cl)cc1)C(=O)N[C@H](Cc1cccnc1)C(=O)N[C@@H](CO)C(=O)N[C@@H](CCCCNC(=O)c1ccccn1)C(=O)N[C@H](CCCCNC(=O)c1cccc(N)n1)C(=O)N[C@@H](CC(C)C)C(=O)N[C@@H](CCCN=C(N)N)C(=O)N1CCC[C@H]1C(=O)N[C@H](C)C(=O)O`, the Ratio (Rattus norvegicus [13]) is reported as 2.

`CC(=O)N[C@H](Cc1ccc2ccccc2c1)C(=O)N[C@H](Cc1ccc(Cl)cc1)C(=O)N[C@H](Cc1cccnc1)C(=O)N[C@@H](CO)C(=O)N[C@@H](CCCNC(=O)c1cnccn1)C(=O)N[C@H](CCCCNC(=O)c1ccc(N)nc1)C(=O)N[C@@H](CC(C)C)C(=O)N[C@@H](CCCN=C(N)N)C(=O)N1CCC[C@H]1C(=O)N[C@H](C)C(=O)O` was tested, and the “Number of rats ovulated” value (Rattus norvegicus [7]) was 6.

Compound `CC(=O)N[C@H](Cc1ccc2ccccc2c1)C(=O)N[C@H](Cc1ccc(Cl)cc1)C(=O)N[C@H](Cc1cccnc1)C(=O)N[C@@H](CO)C(=O)N[C@@H](CCCCNC(=O)c1cnccn1)C(=O)N[C@H](CCCCNC(=O)c1cnccn1)C(=O)N[C@@H](CC(C)C)C(=O)N[C@@H](CCCCN)C(=O)N1CCC[C@H]1C(=O)N[C@H](C)C(=O)O` has a Ratio (Rattus norvegicus [14]) of 5.

`CC(=O)N[C@H](Cc1ccc2ccccc2c1)C(=O)N[C@H](Cc1ccc(Cl)cc1)C(=O)N[C@H](Cc1cccnc1)C(=O)N[C@@H](CO)C(=O)N[C@@H](CCCCNC(=O)c1cccc(N)n1)C(=O)N[C@H](CCCCNC(=O)c1cccc(N)n1)C(=O)N[C@@H](CC(C)C)C(=O)N[C@@H](CCCCNC(C)C)C(=O)N1CCC[C@H]1C(=O)N[C@H](C)C(=O)O` was tested, and the “Number of rats ovulated” value (Rattus norvegicus [8]) was 7.

Work on `CC(=O)N[C@H](Cc1ccc2ccccc2c1)C(=O)N[C@H](Cc1ccc(Cl)cc1)C(=O)N[C@H](Cc1cccnc1)C(=O)N[C@@H](CO)C(=O)N[C@@H](CCCCNC(=O)c1ccccn1)C(=O)N[C@H](CCCCNC(=O)c1ncccc1N)C(=O)N[C@@H](CC(C)C)C(=O)N[C@@H](CCCCNC(C)C)C(=O)N1CCC[C@H]1C(=O)N[C@H](C)C(=O)O` yielded a Ratio (Rattus norvegicus [15]) of 4.

For `CC(=O)N[C@H](Cc1ccc2ccccc2c1)C(=O)N[C@H](Cc1ccc(Cl)cc1)C(=O)N[C@H](Cc1cccnc1)C(=O)N[C@@H](CO)C(=O)N[C@@H](CCCCNC(=O)c1cccnc1N)C(=O)N[C@H](CCCCNC(=O)c1cccnc1N)C(=O)N[C@@H](CC(C)C)C(=O)N[C@@H](CCCCNC(C)C)C(=O)N1CCC[C@H]1C(=O)N[C@H](C)C(=O)O`, the “Number of rats ovulated” value (Rattus norvegicus [8]) was 7.

Work on `CNC[C@@H](NC(=O)[C@@H]1CCCN1C(=O)[C@H](CCCN=C(N)N)NC(=O)[C@H](CC(C)C)NC(=O)[C@@H](CCCCNC(=O)c1ccc(N)nc1)NC(=O)[C@H](CCCCNC(=O)c1ccccn1)NC(=O)[C@H](CO)NC(=O)[C@@H](Cc1cccnc1)NC(=O)[C@@H](Cc1ccc(Cl)cc1)NC(=O)[C@H](N)Cc1ccc2ccccc2c1)C(=O)O` yielded a Ratio (Rattus norvegicus [9]) of 0, a Ratio (Rattus norvegicus [10]) of 0 and an ED50 (Rattus norvegicus [3]) of 31 µg/mL (≈ 19.6 µM). The Ratio (Rattus norvegicus [11]) was 6.

With `CC(=O)N[C@H](Cc1ccc2ccccc2c1)C(=O)N[C@H](Cc1ccc(Cl)cc1)C(=O)N[C@H](Cc1cccnc1)C(=O)N[C@@H](CO)C(=O)N[C@@H](CCCCNC(=O)c1ccc(N)nc1)C(=O)N[C@H](CCCCNC(=O)c1ccc(N)nc1)C(=O)N[C@@H](CC(C)C)C(=O)N[C@@H](CCCN=C(N)N)C(=O)N1CCC[C@H]1C(=O)N[C@H](C)C(=O)O` the “Number of rats ovulated” value (Rattus norvegicus [7]) was 6.

`CC(=O)N[C@H](Cc1cnc2ccccc2c1)C(=O)N[C@H](Cc1ccc(Cl)cc1)C(=O)N[C@H](Cc1cccnc1)C(=O)N[C@@H](CO)C(=O)N[C@@H](CCCNC(=O)c1cnccn1)C(=O)N[C@H](CCCNC(=O)c1ccc(N)nc1)C(=O)N[C@@H](CC(C)C)C(=O)N[C@@H](CCCN=C(N)N)C(=O)N1CCC[C@H]1C(=O)N[C@H](C)C(=O)O` gave a Ratio (Rattus norvegicus [1]) of 5.

`CC(=O)N[C@H](Cc1ccc2ccccc2c1)C(=O)N[C@H](Cc1ccc(Cl)cc1)C(=O)N[C@H](Cc1cccnc1)C(=O)N[C@@H](CO)C(=O)N[C@@H](CCCCNC(=O)c1nccnc1N)C(=O)N[C@H](CCCCNC(=O)c1nccnc1N)C(=O)N[C@@H](CC(C)C)C(=O)N[C@@H](CCCN=C(N)N)C(=O)N1CCC[C@H]1C(=O)N[C@H](C)C(=O)O` showed a Ratio (Rattus norvegicus [15]) of 4.

`C[C@@H](NC(=O)[C@@H]1CCCN1C(=O)[C@H](CCCN=C(N)N)NC(=O)[C@H](Cc1c[nH]cn1)NC(=O)[C@@H](CCCCNC(=O)c1ccc(N)nc1)NC(=O)[C@H](CCCCNC(=O)c1ccccn1)NC(=O)[C@H](CO)NC(=O)[C@@H](Cc1cccnc1)NC(=O)[C@@H](Cc1ccc(Cl)cc1)NC(=O)[C@H](N)Cc1ccc2ccccc2c1)C(=O)O` was tested, and the “Number of rats ovulated” value (Rattus norvegicus [7]) was 6.

For `CC(=O)N[C@H](Cc1ccc2ccccc2c1)C(=O)N[C@H](Cc1ccc(Cl)cc1)C(=O)N[C@H](Cc1cccnc1)C(=O)N[C@@H](CO)C(=O)N[C@@H](CCCCNC(=O)c1cnccn1)C(=O)N[C@H](CCCCNC(=O)c1cccnc1)C(=O)N[C@@H](CC(C)C)C(=O)N[C@@H](CCCCN)C(=O)N1CCC[C@H]1C(=O)N[C@H](C)C(=O)O`, the “Number of rats ovulated” value (Rattus norvegicus [7]) was 6.

For `CC(=O)N[C@H](Cc1ccc2ccccc2c1)C(=O)N[C@H](Cc1ccc(Cl)cc1)C(=O)N[C@H](Cc1cccnc1)C(=O)N[C@@H](CO)C(=O)N[C@@H](CCCCNC(=O)c1cccnc1N)C(=O)N[C@H](CCCCNC(=O)c1cccnc1N)C(=O)N[C@@H](CC(C)C)C(=O)N[C@@H](CCCN=C(N)N)C(=O)N1CCC[C@H]1C(=O)N[C@H](C)C(=O)O`, the “Number of rats ovulated” value (Rattus norvegicus [7]) was 6.
